Source: US8389523B2, “Substituted quinoxaline and an agrochemical composition thereof” (Kumiai Chemical Industry Co., Ltd., priority 2007, dated 2013)

What was measured:
Assay type in all cases: in vivo
Parameters in all cases: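 grade 0 to 5 of growth suppression where 5 is 90% or more and 0 below 10%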
[1] = system: Abutilon theophrasti medicus; assay: Herbicidal effects in upland field foliar treatment (Test Example 3); conditions: 1000 g of the active ingredient per hectare, 14th day after the treatment, wettable powder, criteria of Table 138
In short: (§1)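 Dose was 1000 g of active ingredient per hectare, sprayed as a wettable powder in water at a volume of 1000 L/ha onto foliage of two-week-old greenhouse-grown plants in upland soil. Damage was assessed against rating criteria on the 14th day.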

Amaranthus viridis L. [2] = assay: as above; conditions: 1000 g of the active ingredient per hectare, 14th day after the treatment, wettable powder, criteria of Table 138
In short: as §1

[3] = system: Echinochloa crus-galli (L.) P. Beauv. var. crus-galli; assay: as above; conditions: 1000 g of the active ingredient per hectare, 14th day after the treatment, wettable powder, criteria of Table 138
In short: as §1

[4] = system: Scirpus juncoides Roxb. var. ohwianus. T. Koyama; assay: Herbicidal effects in paddy field soil treatment (Test Example 1); conditions: paddy field soil treatment; 1000 g of the active ingredient per hectare; wettable powder added dropwise on water surface; 21st day after treatment
In short: (§2)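 Application rate was 1000 g active ingredient per hectare, delivered as a diluted wettable powder onto the surface of 3 cm flood water, the day after seeds were sown in paddy soil. Effects were rated 21 days later.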

[5] = system: Echinochloa oryzicola Vasing; assay: as above; conditions: paddy field soil treatment; 1000 g of the active ingredient per hectare; wettable powder added dropwise on water surface; 21st day after treatment
In short: as §2

[6] = system: Monochoria vaginalis (Burm. f.) Presl var. plantaginea (Roxb.) Solms-Laub.; assay: as above; conditions: paddy field soil treatment; 1000 g of the active ingredient per hectare; wettable powder added dropwise on water surface; 21st day after treatment
In short: as §2

[7] = system: Abutilon theophrasti medicus; assay: Herbicidal effects in upland field soil treatment (Test Example 2); conditions: 1000 g active ingredient per hectare, 21st day after treatment, criteria of Table 138
In short: (§3)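 A wettable powder formulation, diluted with water, is applied to the soil surface after sowing and covering seeds in upland field soil, at a rate of 1000 g active ingredient per hectare. After greenhouse growth, herbicidal activity is graded by criteria at 21 days.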

Amaranthus viridis L. [8] = assay: as above; conditions: 1000 g active ingredient per hectare, 21st day after treatment, criteria of Table 138
In short: as §3

Row | Compound | herbicidal effects on Abutilon theophrasti medicus [1] | herbicidal effects on Amaranthus viridis L. (Amaranthus viridis L. [2]) | herbicidal effects on Echinochloa crus-galli (L.) P. Beauv. var. crus-galli [3] | Herbicidal effects index, Scirpus juncoides Roxb. var. ohwianus. T. Koyama [4] | Herbicidal effects index, Echinochloa oryzicola Vasing [5] | Herbicidal effects index, Monochoria vaginalis (Burm. f.) Presl var. plantaginea (Roxb.) Solms-Laub. [6] | herbicidal effect (index) on Abutilon theophrasti medicus [7] | herbicidal effect (index) on Amaranthus viridis L. (Amaranthus viridis L. [8])
1 | COc1ccc2nc(C(=O)C3=C(O)CCCC3=O)c(=O)n(-c3ccc(F)cc3)c2c1 [II-304] | 5 | 5 | 4 | 5 | 5 | 5 | 5 | 5
2 | COc1ccc2nc(C(=O)C3=C(O)CCCC3=O)c(=O)n(-c3ccc(OC(F)F)cc3)c2c1 [II-305] | 5 | 5 | 5 | 5 | 5 | 5 | 5 | 5
3 | Cn1c(=O)c(C(=O)C2=C(O)CCCC2=O)nc2cccnc21 [III-2] | 5 | 5 | 5 | 5 | 5 | 5 | 5 | 5
4 | Cn1c(=O)c(C(=O)C2=C(O)C3CCC(C3)C2=O)nc2cccnc21 (stereo not drawn) [III-5] | 5 | 5 | 5 | 5 | 5 | 5 | 5 | 4
5 | CCn1c(=O)c(C(=O)C2=C(O)CCCC2=O)nc2cccnc21 [III-7] | 5 | 5 | 4 | 5 | 5 | 5 | 5 | 5
6 | CCCn1c(=O)c(C(=O)C2=C(O)CCCC2=O)nc2cccnc21 [III-12] | 5 | 5 | 4 | 5 | 5 | 5 | 4 | 5
7 | CC(C)n1c(=O)c(C(=O)C2=C(O)CCCC2=O)nc2cccnc21 [III-13] | 5 | 5 | 4 | 5 | 5 | 5 | 5 | 5
8 | CCCCn1c(=O)c(C(=O)C2=C(O)CCCC2=O)nc2cccnc21 [III-15] | 5 | 5 | 5 | 5 | 5 | 5 | 5 | 5
9 | C=CCn1c(=O)c(C(=O)C2=C(O)CCCC2=O)nc2cccnc21 [III-30] | 5 | 5 | 4 | 5 | 4 | 5 | 5 | 5
10 | C#CCn1c(=O)c(C(=O)C2=C(O)CCCC2=O)nc2cccnc21 [III-35] | 5 | 5 | 4 | 5 | 4 | 5 | 5 | 5
11 | O=C1CCCC(O)=C1C(=O)c1nc2cccnc2n(CC(F)(F)F)c1=O [III-40] | 5 | 5 | 4 | 5 | 5 | 5 | 5 | 5
12 | O=C1CCCC(O)=C1C(=O)c1nc2cccnc2n(CCF)c1=O [III-45] | 5 | 5 | 5 | 5 | 4 | 5 | 4 | 5
13 | O=C1CCCC(O)=C1C(=O)c1nc2cccnc2n(COCC(F)(F)F)c1=O [III-59] | 5 | 5 | 5 | 5 | 5 | 5 | 5 | 5
14 | COCCn1c(=O)c(C(=O)C2=C(O)CCCC2=O)nc2cccnc21 [III-88] | 5 | 5 | 5 | 4 | 5 | 5 | 5 | 5
15 | COCC(C)n1c(=O)c(C(=O)C2=C(O)CCCC2=O)nc2cccnc21 (stereo not drawn) [III-90] | 5 | 5 | 5 | 5 | 5 | 5 | 5 | 5
